The target of one test is T1, TRKA (Homo sapiens, UniProt P04629).
T1 construct: purchased life technologies PV3144
In words: Z′-LYTE kinase activity assay, TRKA. Format: biochemical. To be noted: ATP 400 uM. From the text: (§1) Kinase activity assay: Z′-LYTE™ technology (detection by fluorescence, enzyme-conjugated format, based on the difference in sensitivity of phosphorylated and non-phosphorylated peptides to proteolytic cleavage) was applied, and using the principle of fluorescence resonance energy transfer (FRET), a Z′-LYTE™ FRET peptide substrate (Z′-LYTE™ Tyrosine 1 Peptide Substrate, Invitrogen, PV3190), and a secondary reaction were used to detect the inhibitory activity of the compounds on TRKs (TRK1, TRK2, TRK3) (life technologies, PV3144, PV3616, PV3617).
(§2) Enzymatic reaction: In a 384-well plate, 5 μL of an enzyme-substrate system (50 mM HEPES pH 7.5, 0.01% BRIJ-35, 10 mM MgCl2, 1 mM EGTA, 2 μM Tyr 01 Peptide Substrate) was added and 5 nL of compound (concentration gradient) was transferred thereto by using the echo520 ultramicro liquid pipetting system. […] After shaking and mixing, centrifuging was performed. A reaction was carried out at 30° C. in the dark for 1.5 hours.
(§3) The data were analyzed as follows:
(§4) Phosphorylation ratio=1−{(emission ratio×F100%−C100%)/[C0%−C100%+emission ratio×(F100%−F0%)]}×100;
(§5) Inhibition rate=100×(1−compound phosphorylation ratio/negative control phosphorylation ratio).
(§6) IC50 values were calculated by using GraphPad Prism 5.0 software.

In a further test the target is T2, TRKB (Homo sapiens, UniProt Q16620).
T2 construct: purchased life technologies PV3616
T2 sequence (Q16620 32-822): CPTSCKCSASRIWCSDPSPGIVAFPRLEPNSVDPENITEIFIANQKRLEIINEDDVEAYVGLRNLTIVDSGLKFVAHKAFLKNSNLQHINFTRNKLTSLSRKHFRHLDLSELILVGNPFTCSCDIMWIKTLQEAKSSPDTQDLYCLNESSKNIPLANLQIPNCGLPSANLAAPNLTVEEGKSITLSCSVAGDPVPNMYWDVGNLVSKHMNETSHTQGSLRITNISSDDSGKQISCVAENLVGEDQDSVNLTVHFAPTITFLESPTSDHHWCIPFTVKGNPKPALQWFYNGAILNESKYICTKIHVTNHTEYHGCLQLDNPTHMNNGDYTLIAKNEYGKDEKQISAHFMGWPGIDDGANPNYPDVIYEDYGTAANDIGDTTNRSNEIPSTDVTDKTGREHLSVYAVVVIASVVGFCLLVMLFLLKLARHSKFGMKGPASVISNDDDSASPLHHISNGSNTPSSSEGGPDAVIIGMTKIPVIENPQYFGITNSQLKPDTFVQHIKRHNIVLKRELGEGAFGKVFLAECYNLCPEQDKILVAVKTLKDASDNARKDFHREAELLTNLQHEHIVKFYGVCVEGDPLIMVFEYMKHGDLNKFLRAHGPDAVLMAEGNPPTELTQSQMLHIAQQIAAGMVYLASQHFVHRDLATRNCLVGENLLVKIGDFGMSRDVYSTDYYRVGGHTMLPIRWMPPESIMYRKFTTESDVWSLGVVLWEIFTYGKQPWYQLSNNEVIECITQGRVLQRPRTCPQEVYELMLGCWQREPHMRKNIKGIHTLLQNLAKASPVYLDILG
In words: Z′-LYTE kinase activity assay, TRKB. Conditions: ATP 25 uM. Type of test: biochemical.
From the text: as §1, §2, §3, §4, §5, §6

The next test concerns the target T3, TRKC (Homo sapiens, UniProt Q16288).
T3 construct: purchased life technologies PV3617
In words: Z′-LYTE kinase activity assay, TRKC. Type of test: biochemical. To be noted: ATP 50 uM.
From the text: as §1, §2, §3, §6

The next test has as its target T4, BaF3-CD74-NTRK1 (Homo sapiens, UniProt P04629).
T4 construct: fused on or other part: P04233 (HLA class II histocompatibility antigen gamma chain)
In words: Cell proliferation inhibition (CCK-8), BaF3-CD74-NTRK1 stable strain. Type of test: cell-based, mouse. Conditions: BaF3-CD74-NTRK1, 72 hours. As to the method: (§7) The brief steps of stable strain construction are as follows: construct a pCDNA3.1(+) plasmid vector carrying genes such as CD74-NTRK1, ETV6-NTRK2 and ETV6-NTRK3; the plasmid was electroporated into Ba/F3 cells using the Amaxa® Cell Line Nucleofector® Kit V; 48 hours after electroporated, G418 with a final concentration of 1000 μg/ml was added for screening for two weeks, and then IL3 was removed, and continued screening to obtain polyclonal stable strains; then single clones were selected by a limiting dilution method. The stable strains were then identified using positive drugs, WB and gene sequencing; and the monoclonal clones that were identified as completely correct may be used for the study of cell proliferation inhibitory activity of inhibitors.
(§8) Cell proliferation inhibition activity study: the cells in the logarithmic growth phase were seeded into 96-well plates at 8000-12000 cells/well, and inhibitors at different concentrations (0-10 μM) were added the next day, and incubation was continued for 72 hours; then 10 μL of CCK-8 reagent was added to each well, and the incubation was continued for 1-3 hours; and then use a super microplate reader to measure their absorbance values at 450 nm and 650 nm. The half-inhibition concentration (IC50) was calculated using GraphPad Prism 8.0.0.

The next test addresses T5, BaF3-ETV6-NTRK2 (Homo sapiens, UniProt Q16620).
T5 construct: fused on or other part: P41212 (Transcription factor ETV6)
The test is described as follows: Cell proliferation inhibition (CCK-8), BaF3-ETV6-NTRK2 stable strain. Type of test: cell-based, mouse. To be noted: BaF3-ETV6-NTRK2, 72 hours. The method, then: as §7, §8

A further test deals with T6, BaF3-ETV6-NTRK3 (Homo sapiens, UniProt Q16288).
T6 construct: fused on or other part: P41212 (Transcription factor ETV6)
T6 sequence (Q16288 whole entry, the tested form may be a part): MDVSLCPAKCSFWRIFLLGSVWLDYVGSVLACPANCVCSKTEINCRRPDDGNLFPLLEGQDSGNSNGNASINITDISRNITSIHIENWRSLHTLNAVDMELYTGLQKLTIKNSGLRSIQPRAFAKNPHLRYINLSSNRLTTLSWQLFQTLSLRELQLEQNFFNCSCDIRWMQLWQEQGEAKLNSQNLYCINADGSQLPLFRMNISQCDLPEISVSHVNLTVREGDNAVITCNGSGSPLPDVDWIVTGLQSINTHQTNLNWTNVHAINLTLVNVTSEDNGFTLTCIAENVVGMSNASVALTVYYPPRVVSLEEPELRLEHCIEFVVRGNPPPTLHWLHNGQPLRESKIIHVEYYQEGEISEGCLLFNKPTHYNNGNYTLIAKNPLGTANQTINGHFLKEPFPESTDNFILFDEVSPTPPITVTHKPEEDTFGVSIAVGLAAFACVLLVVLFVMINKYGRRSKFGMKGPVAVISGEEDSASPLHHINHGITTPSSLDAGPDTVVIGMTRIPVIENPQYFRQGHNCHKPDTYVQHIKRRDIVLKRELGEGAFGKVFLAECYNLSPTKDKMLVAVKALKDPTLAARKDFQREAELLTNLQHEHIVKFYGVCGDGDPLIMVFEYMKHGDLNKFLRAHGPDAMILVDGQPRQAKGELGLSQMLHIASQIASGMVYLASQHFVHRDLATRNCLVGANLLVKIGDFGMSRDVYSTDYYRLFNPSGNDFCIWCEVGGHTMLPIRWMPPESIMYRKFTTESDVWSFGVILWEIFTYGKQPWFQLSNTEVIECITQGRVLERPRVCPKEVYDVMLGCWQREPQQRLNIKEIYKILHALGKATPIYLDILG
In words: Cell proliferation inhibition (CCK-8), BaF3-ETV6-NTRK3 stable strain. To be noted: BaF3-ETV6-NTRK3, 72 hours. Format: cell-based, mouse. The method, then:
as §7, §8

Each structure is given as a SMILES string.

In general, IC50 refers to the point on the concentration scale where inhibition reaches its midpoint.

T1 sequence (P04629 440-796 limits assumed): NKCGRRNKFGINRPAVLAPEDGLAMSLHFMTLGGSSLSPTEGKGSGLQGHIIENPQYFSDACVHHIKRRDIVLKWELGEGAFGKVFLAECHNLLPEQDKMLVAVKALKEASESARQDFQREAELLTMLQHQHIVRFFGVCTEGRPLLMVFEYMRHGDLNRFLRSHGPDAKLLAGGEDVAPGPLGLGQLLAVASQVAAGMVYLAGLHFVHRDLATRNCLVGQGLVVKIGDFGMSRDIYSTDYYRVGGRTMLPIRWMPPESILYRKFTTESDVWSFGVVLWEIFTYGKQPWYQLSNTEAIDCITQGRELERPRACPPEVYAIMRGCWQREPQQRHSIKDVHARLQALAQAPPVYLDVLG
T4 sequence (P04629 510-796 limits assumed): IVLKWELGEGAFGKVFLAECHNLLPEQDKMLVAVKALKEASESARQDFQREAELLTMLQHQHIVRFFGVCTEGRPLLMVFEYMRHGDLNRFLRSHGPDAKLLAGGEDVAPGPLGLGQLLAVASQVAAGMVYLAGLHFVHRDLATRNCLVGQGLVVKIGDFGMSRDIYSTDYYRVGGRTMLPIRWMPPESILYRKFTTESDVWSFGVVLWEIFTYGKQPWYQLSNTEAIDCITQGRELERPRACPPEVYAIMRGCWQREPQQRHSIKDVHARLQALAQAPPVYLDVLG
T5 sequence (Q16620 538-822 limits assumed): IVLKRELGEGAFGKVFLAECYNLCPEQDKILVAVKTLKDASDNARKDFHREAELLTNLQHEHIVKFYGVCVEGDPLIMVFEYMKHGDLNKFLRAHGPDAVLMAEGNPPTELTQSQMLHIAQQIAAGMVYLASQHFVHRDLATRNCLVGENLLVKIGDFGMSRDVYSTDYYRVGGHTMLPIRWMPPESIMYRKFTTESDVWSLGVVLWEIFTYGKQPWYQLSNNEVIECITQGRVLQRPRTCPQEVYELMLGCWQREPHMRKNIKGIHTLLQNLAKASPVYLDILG
T3 sequence (Q16288 32-839): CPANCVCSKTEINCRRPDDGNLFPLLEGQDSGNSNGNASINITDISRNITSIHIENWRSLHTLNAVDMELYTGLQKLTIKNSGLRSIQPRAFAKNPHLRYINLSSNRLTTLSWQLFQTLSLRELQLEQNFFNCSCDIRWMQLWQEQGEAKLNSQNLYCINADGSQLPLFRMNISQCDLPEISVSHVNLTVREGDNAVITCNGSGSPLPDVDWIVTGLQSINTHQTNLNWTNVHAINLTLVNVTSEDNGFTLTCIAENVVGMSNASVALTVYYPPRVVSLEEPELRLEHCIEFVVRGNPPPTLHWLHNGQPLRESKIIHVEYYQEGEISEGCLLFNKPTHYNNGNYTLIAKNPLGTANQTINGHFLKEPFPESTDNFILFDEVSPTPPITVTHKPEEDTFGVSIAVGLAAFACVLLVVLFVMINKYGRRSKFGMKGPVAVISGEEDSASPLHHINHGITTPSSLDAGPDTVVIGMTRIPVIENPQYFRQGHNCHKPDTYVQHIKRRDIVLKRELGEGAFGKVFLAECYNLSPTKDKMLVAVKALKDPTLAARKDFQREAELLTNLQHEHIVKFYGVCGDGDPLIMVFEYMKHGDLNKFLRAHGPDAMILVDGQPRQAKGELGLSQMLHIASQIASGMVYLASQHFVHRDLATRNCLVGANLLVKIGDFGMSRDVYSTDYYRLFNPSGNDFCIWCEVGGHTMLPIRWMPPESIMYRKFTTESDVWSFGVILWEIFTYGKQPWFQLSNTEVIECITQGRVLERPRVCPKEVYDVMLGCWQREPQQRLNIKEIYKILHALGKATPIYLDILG

As to `Fc1cc(F)cc(Sc2ccc3[nH]nc(C#Cc4ccccn4)c3c2)c1` [DYX-086, 5-((3,5-difluorophenyl)thio)-3-(pyridin-2-ylethynyl)-1H-indazole], the half-maximal inhibitory concentration (IC50) came to 54.2 nM against TRKA; 241 nM against TRKB; 111 nM against TRKC; 3600 nM at BaF3-CD74-NTRK1; 2600 nM on BaF3-ETV6-NTRK2; 3710 nM on BaF3-ETV6-NTRK3.
On to `Fc1ccc(Cc2ccc3[nH]nc(/C=C/c4ccccn4)c3c2)c(F)c1` [DYX-060, (E)-5-(2,4-difluorobenzyl)-3-(2-(pyridin-2-yl)vinyl)-1H-indazole], for which the concentration for half-maximal inhibition (IC50) on TRKA is 818 nM; at TRKB it was 375 nM; against TRKC it was 620 nM; at BaF3-CD74-NTRK1 it was over 10000 nM; against BaF3-ETV6-NTRK2, over 10000 nM; against BaF3-ETV6-NTRK3 it was over 10000 nM.
Turning to `Fc1cc(F)cc(Nc2ccc3[nH]nc(/C=C/c4ccccn4)c3c2)c1` [DYX-105, (E)-N-(3,5-difluorophenyl)-3-(2-(pyridin-2-yl)vinyl)-1H-indazol-5-amine], the 50% inhibitory concentration (IC50) came to 353 nM against TRKB, 226 nM on TRKC, 2620 nM at BaF3-ETV6-NTRK2 and 2270 nM against BaF3-ETV6-NTRK3.
As to `Fc1cc(F)cc(C#Cc2ccc3[nH]nc(/C=C/c4ccccn4)c3c2)c1` [DYX-183, (E)-5-((3,5-difluorophenyl)ethynyl)-3-(2-(pyridin-2-yl)vinyl)-1H-indazole], the half-inhibitory concentration (IC50) was 598 nM at TRKA; over 1000 nM against TRKB; over 10000 nM against BaF3-CD74-NTRK1; over 10000 nM at BaF3-ETV6-NTRK2; over 10000 nM on BaF3-ETV6-NTRK3.
`O=S(=O)(c1cc(F)cc(F)c1)c1ccc2[nH]nc(/C=C/c3ccccc3F)c2c1` [Example E01F10, (E)-5-((3,5-difluorophenyl)sulfonyl)-3-(2-fluorostyryl)-1H-indazole]: the half-inhibitory concentration (IC50) at BaF3-CD74-NTRK1 was determined as 68.9 nM; on BaF3-ETV6-NTRK2 it was 610 nM; on BaF3-ETV6-NTRK3, 156 nM.
As to `Fc1cc(F)cc(Cc2ccc3[nH]nc(/C=C/c4ccccc4C(F)(F)F)c3c2)c1` [Example D01F11], the results for the 50% inhibitory concentration (IC50) on BaF3-CD74-NTRK1, against BaF3-ETV6-NTRK2 and on BaF3-ETV6-NTRK3 were 12.9 nM, 159 nM and 25.6 nM, respectively.
In the same order, the values of `O=S(=O)(c1cc(F)cc(F)c1)c1ccc2[nH]nc(/C=C/c3ccccc3)c2c1` [Example E01F07, (E)-5-((3,5-difluorophenyl)sulfonyl)-3-styryl-1H-indazole] are 35.8 nM, 441 nM and 92.9 nM.
In the same order, the values of `Fc1ccccc1CNc1ccc2[nH]nc(/C=C/c3ccccn3)c2c1` [DYX-413, (E)-N-(2-fluorobenzyl)-3-(2-(pyridin-2-yl)vinyl)-1H-indazol-5-amine] are 40.8 nM, 376 nM and 161 nM.
The matching figures for `O=S(=O)(c1cc(F)cc(F)c1)c1ccc2[nH]nc(/C=C/c3ccncc3)c2c1` [Example E01F02, (E)-5-((3,5-difluorophenyl)sulfonyl)-3-(2-(pyridin-4-yl)vinyl)-1H-indazole]: 18.9 nM, 133 nM and 40.7 nM.
Take `CN(C)C(=O)/C=C/c1n[nH]c2ccc(NCc3cc(F)cc(F)c3)cc12` [DYX-220, (E)-3-(5-((3,5-difluorobenzyl)amino)-1H-indazol-3-yl)-N,N-dimethylacrylamide]: the IC50 was 21.2 nM against BaF3-CD74-NTRK1, 31.7 nM against BaF3-ETV6-NTRK2 and 22.6 nM against BaF3-ETV6-NTRK3.
In the same order, the values of `CCn1cc(/C=C/c2n[nH]c3ccc(N[C@H](C)c4cc(F)cc(F)c4)cc23)cn1` [DYX-349, (R,E)-N-(1-(3,5-difluorophenyl)ethyl)-3-(2-(1-ethyl-1H-pyrazol-4-yl)vinyl)-1H-indazol-5-amine] are 7.4 nM, 10.7 nM and 4.3 nM.
In the same order, the values of `CN1CCN(C(=O)/C=C/c2n[nH]c3ccc(NCc4cc(F)cc(F)c4)cc23)CC1` [DYX-226, (E)-3-(5-((3,5-difluorobenzyl)amino)-1H-indazol-3-yl)-1-(4-methylpiperazin-1-yl)prop-2-en-1-one] are 48.7 nM, 48.1 nM and 34.4 nM.

Source of the values: patent US20220281821A1, “INDAZOLE COMPOUNDS AND THEIR PHARMACEUTICAL COMPOSITIONS” (Jinan University, priority 2019, published 2022).
